Laboratory results from patent US20240350460A1, “APPLICATION OF HYDRAZIDE COMPOUND IN TUMOR TREATMENT” (NANJING SHIJIANG MEDICINE TECHNOLOGY CO., LTD, priority 2021, published 2024).

What was measured:
Assay type in all cases: cell-based
[1] = system: NCI-H82; assay: Cell viability (Promega CellTiter-Glo), inhibitory effect on tumor cell line; conditions: NCI-H82, human small cell lung cancer cell; sensitive group; 3-4 days of culture; n=3
Procedure: Cell viability was detected using the Promega CellTiter-Glo kit, cell viability was determined by directly measuring intracellular ATP content. […] The name, source and culture conditions of each tumor cell line were as follows: […] HTB-175) was cultured in 10% fetal bovine serum-containing RPMI1640 medium (+P/S).

[2] = system: G-401; assay: as above; conditions: G-401, human renal carcinoma Wilms cell; sensitive group; 3-4 days of culture; n=3
Procedure: (§1) Cell viability was detected using the Promega CellTiter-Glo kit, cell viability was determined by directly measuring intracellular ATP content. […] The name, source and culture conditions of each tumor cell line were as follows: Cell line G-401 (ATCC, No. CRL-1441) was cultured in 10% fetal bovine serum-containing McCoy's 5a medium (+P/S).

[3] = system: MDA-MB-453; assay: as above; conditions: Homo sapiens; MDA-MB-453, breast cancer cell; sensitive group; 3-4 days of culture; n=3
Procedure: as §1, with “MDA-MB-453” for “G-401”, “HTB-131)” for “CRL-1441)”, “Leibovitz's L-15” for “McCoy's 5a”

[4] = system: SW48; assay: as above; conditions: SW48, human colon adenocarcinoma cell; sensitive group; 3-4 days of culture; n=3
Procedure: as §1, with “SW48” for “G-401”, “CCL-231)” for “CRL-1441)”, “Leibovitz's L-15” for “McCoy's 5a”

[5] = system: WSU-DLCL2; assay: as above; conditions: WSUDLCL2; WSU-DLCL2, human diffuse large B-cell lymphoma; sensitive group; 3-4 days of culture; n=3
Procedure: Cell viability was detected using the Promega CellTiter-Glo kit, cell viability was determined by directly measuring intracellular ATP content. […] The name, source and culture conditions of each tumor cell line were as follows: Cell line WSU-DLCL2 (DSMZ, No. ACC-575) was cultured in 10% fetal bovine serum-containing RPMI1640 medium (+P/S).

[6] = system: CFPAC-1; assay: as above; conditions: CFPAC-1, human pancreatic cancer cell; insensitive group; 3-4 days of culture; n=3
Procedure: as §1, with “CFPAC-1” for “G-401”, “CRL-1918)” for “CRL-1441)”, “IMDM” for “McCoy's 5a”

[7] = system: GB-1; assay: as above; conditions: GB-1, human glioblastoma cell; insensitive group; 3-4 days of culture; n=3
[8] = system: SF126; assay: as above; conditions: SF-126; SF126, human glioblastoma multiforme cell; insensitive group; 3-4 days of culture; n=3
Procedure: Cell viability was detected using the Promega CellTiter-Glo kit, cell viability was determined by directly measuring intracellular ATP content. […] The name, source and culture conditions of each tumor cell line were as follows: Cell line SF126 (JCRB, No. IFO50286) was cultured in 10% fetal bovine serum-containing EMEM medium (+P/S).

[9] = system: control NCI-H82 cell (NCI-H82 (Con)); assay: Cell viability (Promega CellTiter-Glo) on control NCI-H82 cell; conditions: Homo sapiens; NCI-H82 transfected with empty virus vector without NNMT gene; n=3
Description: (§2) The NNMT protein-overexpressing NCI-H82 cell (NCI-H82 (ov-NNMT)) was obtained by inserting the NNMT gene into NCI-H82 cell using a viral vector. The control NCI-H82 cell (NCI-H82 (Con)) was obtained by transfecting NCI-H82 cell with empty virus vector without carrying NNMT gene.
(§3) The expressing level of NNMT protein in control NCI-H82 cell (NCI-H82 (Con)) and NNMT protein-overexpressing NCI-H82 cell (NCI-H82 (ov-NNMT)) was detected using Western Blot assay (as shown in FIG. 7), it could be seen from FIG. 7 that the NNMT protein in NCI-H82 (ov-NNMT) cell was overexpressed compared with the expression level of NNMT protein in NCI-H82 (Con) cell.

[10] = system: NNMT protein-overexpressing NCI-H82 cell (NCI-H82 (ov-NNMT)); assay: Cell viability (Promega CellTiter-Glo) on NNMT protein-overexpressing NCI-H82 cell; conditions: Homo sapiens; NCI-H82 overexpressing NNMT protein (NNMT gene inserted by viral vector); n=3
Description: as §2, §3

[11] = system: 786-O; assay: Cell viability (Promega CellTiter-Glo), inhibitory effect on tumor cell line; conditions: Homo sapiens, 786-0, clear cell renal cell adenocarcinoma cell, insensitive group, 3-4 days of culture, n=3
Procedure: Cell viability was detected using the Promega CellTiter-Glo kit, cell viability was determined by directly measuring intracellular ATP content. […] The name, source and culture conditions of each tumor cell line were as follows: Cell line 786-O (ATCC, No. CRL-1932) was cultured in 10% fetal bovine serum-containing RPMI1640 medium (+P/S).

| Structure (SMILES) | IC50 [1] | IC50 [2] | IC50 [3] | IC50 [4] | IC50 [5] | IC50 [6] | IC50 [7] | IC50 [8] | IC50 [9] | IC50 [10] | IC50 [11] |
| --- | --- | --- | --- | --- | --- | --- | --- | --- | --- | --- | --- |
| O=C1OCCN1/N=C/c1ccc([N+](=O)[O-])o1 [Furazolidone, furazolidone] | 8.31 µM | 5.77 µM | 7.73 µM | 8.23 µM | 9.04 µM | > 50 µM | 38.4 µM | > 50 µM | 8.22 µM | 18.5 µM |  |
| O=C(N/N=C/c1ccc([N+](=O)[O-])o1)c1ccc(O)cc1 [Nifuroxazide, nifuroxazide] | 2.48 µM | 3.22 µM | 2.78 µM | 4.05 µM | 4.22 µM | > 50 µM | 20 µM | 16.4 µM | 2.41 µM | 5.01 µM | > 50 µM |
